We go through one compound from US20240287172A1, “PROTEIN BINDERS TO IRHOM2 EPITOPES” (SCIRHOM GMBH, priority 2019, published 2024).

The assay deals with LPS-induced release of endogenous TNFα from human THP-1 monocytic cells. As to the kind of experiment: ELISA-based TNFα release assay, LPS-induced, THP-1 cells. Format: cell-based. To be noted: LPS 50 ng/ml, 2 hours, antibodies purified from hybridoma supernatants and IgG at 10 μg/ml, Batimastat at 10 μM. The protocol:
In the following study, ELISA-based TNFα release assays were performed to verify the inhibitory effects of the purified antibodies of the invention on LPS-induced release of endogenous TNFα from human THP-1 monocytic cells.
In brief, on day 1, Nunc black MaxiSorp® 96-well plates (Thermo Fisher Scientific, USA) were coated overnight with 100 μl per well of mouse anti-human TNFα capture antibody (provided as part of the DuoSet ELISA kit) at 4 μg/ml TBS at 4° C. On day 2, the capture antibody solution was removed and MaxiSorp® plates were blocked with 300 μl per well of TBS, 1% BSA at room temperature for 3 hours. […]
Following another round of 4 times washing with 350 μl TBS-T (Carl Roth, Germany) per well on a 96-head plate washer (Tecan Group, Switzerland) and careful removal of all buffer traces after the fourth cycle, 100 μl AttoPhos substrate solution (Promega, USA) per well was added for incubation in the dark at room temperature for 1 hour. Using an infinite M1000 (Tecan Group, Switzerland) microplate reader, the fluorescence of each well was collected at an excitation wavelength of 435 nm and an emission wavelength of 555 nm. […]
(In general: An ELISA detects its analyte on a solid surface through an enzyme-linked reagent.)

As to `CNC(=O)[C@H](Cc1ccccc1)NC(=O)[C@H](CC(C)C)[C@H](CSc1cccs1)C(=O)NO` [Batimastat], testing at 10 µM gave an inhibition of 96.2%.

Broadly, the inhibition is the relative decrease from the control value, in per cent. Read a low inhibition as little suppression.
